Values of other authors in US11376246B2, “Inhibiting mutant IDH-1” (FORMA Therapeutics, Inc., priority 2018, dated 2022).

Conditions: Literature reported data; cited from earlier work

Row | SMILES | BBB+
1 | C[C@@H](Nc1nc(N[C@H](C)C(F)(F)F)nc(-c2cccc(Cl)n2)n1)C(F)(F)F [AG-881] | Yes
2 | Cc1cc(-c2cnc([C@H](C)Nc3nccc(N4C(=O)OC[C@@H]4C(C)C)n3)nc2)ccc1F [IDH889] | Yes
